Literature values, collected in PMC8036510, “The Inhibitory Effects of Plant Derivate Polyphenols on the Main Protease of SARS Coronavirus 2 and Their Structure–Activity Relationship” (Molecules, 2021).
≈ marks a conversion by molar mass, not a printed value.

What was measured:
M^pro [1] = tested on: M^pro; design: method as in PMID 32963564; conditions: 37 °C for 5 h, same substrate
M^pro [2] = tested on: M^pro; design: method as in PMID 33022015; conditions: substrate MCA-AVLQSGFR-K(Dnp)-K-NH2

| SMILES | IC50 on M^pro (M^pro [1]) [µg/mL] | IC50 (M^pro [2]) [µM] |
| --- | --- | --- |
| O=C(O[C@@H]1Cc2c(O)cc(O)cc2O[C@@H]1c1cc(O)c(O)c(O)c1)c1cc(O)c(O)c(O)c1 [Epigallocatechin gallate (EGCG), Epigallocatechin gallate] | 7.6 (≈ 16.6 µM) |  |
| O=C(OC[C@H]1O[C@@H](OC(=O)c2cc(O)c(O)c(OC(=O)c3cc(O)c(O)c(O)c3)c2)[C@H](OC(=O)c2cc(O)c(O)c(OC(=O)c3cc(O)c(O)c(O)c3)c2)[C@@H](OC(=O)c2cc(O)c(O)c(OC(=O)c3cc(O)c(O)c(O)c3)c2)[C@@H]1OC(=O)c1cc(O)c(O)c(OC(=O)c2cc(O)c(O)c(O)c2)c1)c1cc(O)c(O)c(OC(=O)c2cc(O)c(O)c(O)c2)c1 [Tannic acid] |  | 2.1 |
